# pIC50: −log10 of the molar value.
# Tests used:
# [1] = test system: pSLP76(S376) level in Jurkat cell line; assay: Cellular pSLP76(S376) HTRF Assay; type: cell-based; conditions: Homo sapiens, Jurkat, Jurkat cells, 2 h compound treatment, stimulated with 0.05 μg/mL anti-human CD3 (OKT3) for 30 min
# [2] = molecular target: HPK1 kinase (aal-346. Life Technologies) (Homo sapiens (Human), UniProt Q92918); assay: HPK Kinase Activity Assay at 1 mM ATP (TR-FRET); type: biochemical; conditions: HPK1 kinase 40 nM, 0.5 μM STK1 substrate, read-out: Enzymatic activity IC50
# Sequence of HPK1 kinase (aal-346. Life Technologies) (Q92918 1-346): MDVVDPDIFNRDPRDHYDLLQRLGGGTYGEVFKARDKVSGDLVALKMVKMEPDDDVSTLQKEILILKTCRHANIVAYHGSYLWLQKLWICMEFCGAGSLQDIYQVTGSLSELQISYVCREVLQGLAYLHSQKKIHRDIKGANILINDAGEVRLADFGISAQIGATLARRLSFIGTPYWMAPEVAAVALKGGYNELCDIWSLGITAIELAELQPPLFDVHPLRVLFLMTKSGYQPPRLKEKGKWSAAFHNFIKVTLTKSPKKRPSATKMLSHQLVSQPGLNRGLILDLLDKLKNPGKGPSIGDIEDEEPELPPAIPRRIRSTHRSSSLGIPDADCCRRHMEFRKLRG
pIC50 [1],pIC50 [2],SMILES
6.74,7.59,"CCN(CC)c1cc(-c2cnc(N)c(Oc3cnn(C4CCN(C)CC4)c3)n2)cc(CNC)n1 [Example B1, 5-(2-(diethylamino)-6-((methylamino)methyl)pyridin-4-yl)-3-((1-(1-methylpiperidin-4-yl)-1H-pyrazol-4-yl)oxy)pyrazin-2-amine]"
7.12,7.62,"Cc1cc(-c2cnc(N)c(Oc3cnn(C4CCN(C)CC4)c3)n2)cc(C)c1CNc1cnn(C)c1 [Example A57, 5-(3,5-dimethyl-4-(((1-methyl-1H-pyrazol-4-yl)amino)methyl)phenyl)-3-((1-(1-methylpiperidin-4-yl)-1H-pyrazol-4-yl)oxy)pyrazin-2-amine]"
6.64,7.96,"C[C@@H]1COCCN1c1cc(-c2cnc(N)c(Oc3cnn(C4CCN(C)CC4)c3)n2)cc(C(C)(C)O)n1 [Example B3, (R)-2-(4-(5-amino-6-((1-(1-methylpiperidin-4-yl)-1H-pyrazol-4-yl)oxy)pyrazin-2-yl)-6-(3-methylmorpholino)pyridin-2-yl)propan-2-ol]"
6.99,7.51,"C[C@@H]1COCCN1c1cc(-c2cnc(N)c(Oc3cnn(C4CCN(C)CC4)c3)n2)cc(C2(O)COC2)n1 [Example B4, (R)-3-(4-(5-amino-6-(1-(1-methylpiperidin-4-yl)-1H-pyrazol-4-yloxy)pyrazin-2-yl)-6-(3-methylmorpholino)pyridin-2-yl)oxetan-3-ol]"
7.21,7.85,"Cc1cc(-c2cnc(N)c(Oc3cnn(C4CCN(C)CC4)c3)n2)cc(C2(NS(=O)(=O)CC(F)(F)F)CC2)c1 [Example A25, N-(l-(3-(5-amino-6-((1-(1-methylpiperidin-4-yl)-H-pyrazol-4-yl)oxy)pyrazin-2-yl)-5-methylphenyl)cyclopropyl)-2,2,2-trifluoroethane-1-sulfonamide]"
6.79,7.43,"Cc1cc(-c2cnc(N)c(Oc3cnn(C4CCN(C)CC4)c3)n2)cc(C2(O)CCOC2)c1F (stereo not shown) [Example A93, 3-(5-(5-amino-6-((1-(1-methylpiperidin-4-yl)-1H-pyrazol-4-yl)oxy)pyrazin-2-yl)-2-fluoro-3-methylphenyl)tetrahydrofuran-3-ol]"
7.32,8.27,"C[C@@H]1COCCN1c1cc(-c2cnc(N)c(Oc3cnn(C4CCN(C)CC4)c3)n2)cc([C@]2(O)CCOC2)c1 [Example A80B, (R)-3-(3-(5-amino-6-((1-(1-methylpiperidin-4-yl)-1H-pyrazol-4-yl)oxy)pyrazin-2-yl)-5-((R)-3-methylmorpholino)phenyl)tetrahydrofuran-3-ol]"
6.74,7.17,"CNC(=O)NCc1ccc(-c2cnc(N)c(Oc3cnn(C4CCN(C)CC4)c3)n2)cc1C [Example A47, 1-(4-(5-amino-6-((1-(1-methylpiperidin-4-yl)-1H-pyrazol-4-yl)oxy)pyrazin-2-yl)-2-methylbenzyl)-3-methylurea]"
6.75,7.46,"COc1ccc(S(=O)(=O)NCc2c(C)cc(-c3cnc(N)c(Oc4cnn(C5CCN(C)CC5)c4)n3)cc2C)cc1 [Example A39, N-(4-(5-amino-6-((1-(1-methylpiperidin-4-yl)-1H-pyrazol-4-yl)oxy)pyrazin-2-yl)-2,6-dimethylbenzyl)-4-methoxybenzenesulfonamide]"
7.12,7.77,"Cc1cc(-c2cnc(N)c(Oc3cnn(C4CCN(C)CC4)c3)n2)cc(C)c1CNc1ncco1 [Example A67, N-(4-(5-amino-6-((1-(1-methylpiperidin-4-yl)-1H-pyrazol-4-yl)oxy)pyrazin-2-yl)-2,6-dimethylbenzyl)oxazol-2-amine]"
6.80,7.08,"CCNS(=O)(=O)c1cc(C)cc(-c2cnc(N)c(Oc3cnn(C4CCN(C)CC4)c3)n2)c1 [Example A15, 3-(5-amino-6-((1-(1-methylpiperidin-4-yl)-1H-pyrazol-4-yl)oxy)pyrazin-2-yl)-N-ethyl-5-methylbenzenesulfonamide]"
7.00,7.34,"Cc1cc(-c2cnc(N)c(Oc3cnn(C4CCN(C)CC4)c3)n2)cc(C)c1CNC(=O)NCC(F)(F)F [Example A51, 1-(4-(5-amino-6-((1-(1-methylpiperidin-4-yl)-1H-pyrazol-4-yl)oxy)pyrazin-2-yl)-2,6-dimethylbenzyl)-3-(2,2,2-trifluoroethyl)urea]"
7.16,7.54,"Cc1cc(-c2cnc(N)c(Oc3cnn(C4CCN(C)CC4)c3)n2)cc(C2(O)CCOCC2)c1 [Example A58, 4-(3-(5-amino-6-((1-(1-methylpiperidin-4-yl)-1H-pyrazol-4-yl)oxy)pyrazin-2-yl)-5-methylphenyl)tetrahydro-2H-pyran-4-ol]"
7.09,7.52,"Cc1cc(-c2cnc(N)c(Oc3cnn(C4CCN(C)CC4)c3)n2)cc(C)c1CNS(=O)(=O)C1CC1 [Example A32, N-(4-(5-amino-6-((1-(1-methylpiperidin-4-yl)-1H-pyrazol-4-yl)oxy)pyrazin-2-yl)-2,6-dimethylbenzyl)cyclopropanesulfonamide]"
7.01,7.68,"Cc1cc(-c2cnc(N)c(Oc3cnn(C4CCN(C)CC4)c3)n2)cc(C)c1C1COC(=O)N1 (stereo not shown) [Example A29, 4-(4-(5-amino-6-((1-(1-methylpiperidin-4-yl)-1H-pyrazol-4-yl)oxy)pyrazin-2-yl)-2,6-dimethylphenyl)oxazolidin-2-one]"
7.01,7.30,"CNS(=O)(=O)c1cc(C)cc(-c2cnc(N)c(Oc3cnn(C4CCN(CC5COC5)CC4)c3)n2)c1 [Example A28, 3-(5-amino-6-((1-(1-(oxetan-3-ylmethyl)piperidin-4-yl)-1H-pyrazol-4-yl)oxy)pyrazin-2-yl)-N, 5-dimethylbenzenesulfonamide]"
6.90,7.43,"COCc1cc(-c2cnc(N)c(Oc3cnn(C4CCN(C)CC4)c3)n2)cc(C2(O)COC2)c1 [Example A82, 3-(3-(5-amino-6-((1-(1-methylpiperidin-4-yl)-1H-pyrazol-4-yl)oxy)pyrazin-2-yl)-5-(methoxymethyl)phenyl)oxetan-3-ol]"
6.80,7.29,"Cc1cc(-c2cnc(N)c(Oc3cnn(C4CCN(C)CC4)c3)n2)cc(C)c1CNc1ncn(C)n1 [Example A68, 5-(3,5-dimethyl-4-(((1-methyl-1H-1,2,4-triazol-3-yl)amino)methyl)phenyl)-3-((1-(1-methylpiperidin-4-yl)-1H-pyrazol-4-yl)oxy)pyrazin-2-amine]"
6.88,7.44,"Cc1cc(-c2cnc(N)c(Oc3cnn(C4CCN(C)CC4)c3)n2)cc(C)c1N1CCOCC1 [Example A66, 5-(3,5-dimethyl-4-morpholinophenyl)-3-((1-(1-methylpiperidin-4-yl)-1H-pyrazol-4-yl)oxy)pyrazin-2-amine]"

SMILES,pIC50 [1],pIC50 [2]
"CNS(=O)(=O)c1cc(C)cc(-c2cnc(N)c(Oc3cnn([C@@H]4C[C@H]5CC[C@@H](C4)N5C)c3)n2)c1 [Example A14, 3-(5-amino-6-((1-((1R,3s,5S)-8-methyl-8-azabicyclo[3.2.1]octan-3-yl)-1H-pyrazol-4-yl)oxy)pyrazin-2-yl)-N,5-dimethylbenzenesulfonamide]",7.23,7.35

# From US20240317714A1, “3-[(1H-PYRAZOL-R-YL)OXY]PYRAZIN-2-AMINE COMPOUNDS AS HPK1 INHIBITOR AND USE THEREOF” (BeiGene, Ltd., priority 2020, published 2024)
